Values quoted from earlier work in patent US20080274094A1, “Molecular Complex Comprising Arbutine, Ascorbic Acid, Oleuropeina or Its Derivatives Thereof and Related Uses In Medical Field” (MED CARE S.R.L., priority 2005, published 2008).

Key:
[1] = tested on: cultured human melanocytes; conditions: Pigment Cell Res. 1998; mechanism other than induction of tyrosinase activity
TNF alpha receptors = conditions: Biochem Pharmacol 1999, Mancini et al.

Row | Compound | pigmentation of cultured human melanocytes [1] | effect on TNF alpha receptors (TNF alpha receptors)
1 | OC[C@H]1O[C@@H](Oc2ccc(O)cc2)[C@H](O)[C@@H](O)[C@@H]1O [Arbutin] | increases the pigmentation | –
2 | Cc1ccc(C(=O)Nc2ccc(S(=O)(=O)O)c3cc(S(=O)(=O)O)cc(S(=O)(=O)O)c23)cc1NC(=O)c1cccc(NC(=O)Nc2cccc(C(=O)Nc3cc(C(=O)Nc4ccc(S(=O)(=O)O)c5cc(S(=O)(=O)O)cc(S(=O)(=O)O)c45)ccc3C)c2)c1 [suramin] | – | inhibitory effect
